{
  "source": "patent US20230358677A1",
  "about": "“Reversible Excited-State Photoacids and Photobases as Dynamic Fluorescence Sensors of Protonic Species” (California Institute of Technology, priority 2022, published 2023)",
  "key": {"[1]": {"details": "cited from earlier work"}, "[2]": {"experiment": "Stability of dye fluorescence near an operating gas diffusion electrode"}, "[3]": {"experiment": "Acid-base titrations of NS—NH2 in the presence of proton-accepting quenchers (modified Stern-Volmer, Equation 7)", "details": "for KSV,OH−: Equation 7; for pKa: pKa,BH+ (Equation 7)", "from_the_text": "Assuming that photoluminescence quenching occurs by ESPT from NS—NH2* to OH^−(aq), the data support that when aOH− is small (i.e. at pH less than about 12), ESPT can be quite slow compared to the excited-state lifetime of NS—NH2*, due to mass action (FIG. 2B). The non-unity quantum yield for ESPT in weakly alkaline aqueous solutions afforded us an opportunity to evaluate a series of aqueous proton-accepting quenchers (glycine (Gly(aq)), proline (Pro(aq)), and trifluoroethanol (TFE(aq))) for their ability to undergo ESPT with NS—NH2*. In order to clearly observe ESPT to a species other than OH^−(aq), added proton-accepting quenchers had to be more basic (ΔG^o<0), or slightly more acidic (ΔG^o>0), than NS—NH2*, and less basic than OH^−(aq). […] As pH values approach and pass the pKa of the proton-accepting quencher, the rate of ESPT slows from a decrease in the concentration of proton-accepting quencher due to its protonation. This is supported by observations from analogous experiments performed using different concentrations of quencher. Best fits of measured photoluminescence spectroscopy data to a modified Stern-Volmer equation for a two-quencher system, including both OH^−(aq) and proton-accepting quencher, provided bimolecular rate constants for deprotonation of the photoacid by each quencher,\nwhere KSV,OH−=K*^−1b and KSV,quencher=k+q,quencherτo,PAH* are the dynamic quenching constants for excited-state proton transfer to OH^−(aq) and proton-accepting quencher, respectively, k+q,quencher is the bimolecular rate constant (M^−1 s^−1) for ESPT quenching by the proton-accepting quencher, and the sum of the activities of B and BH^+ is approximated as the total concentration of the proton-accepting quencher. While the pKa of the proton-accepting quencher is an adjustable parameter during best fitting, extracted pKa values are close to pKa values obtained from the acid-base titration curves of the proton-accepting quenchers. Changing the proton-accepting quencher to one with a smaller pKa value results in a slower non-diffusion-limited rate constant for ESPT with NS—NH2*. The observation of ESPT directly from NS—NH2* to each of two different amino acids, Gly and Pro, is notable, and may have important implications for biological systems where direct protonation of proteins can induce cellular responses.\nTable 2 lists driving-force-dependent rate constants for direct excited-state proton transfer from NS—NH2* to various proton-accepting quenchers.\n(§1) Several embodiments use the steady-state ultraviolet-visible electronic absorption and photoluminescence spectroscopy for characterization. Equal amounts of aromatic amine photoacids are portioned into five separate 100 mL volumetric flasks. For the non-proton-accepting quencher experiments, the five flasks are filled to the volumetric marker with aqueous solutions of 1 M HCl, 1 M KOH, 2 M KOH, 3 M KOH, and 4 M KOH. The aqueous 1 M KOH solution is titrated with the aqueous 1 M HCl solution to reach the desired pH values from 14 to 6, and the H^+ activities are measured using a pH meter (pH/Ion 510). […] Electronic absorption spectra and photoluminescence spectra are acquired using absorbance and fluorescence spectrometer(s), using a square-bottom quartz cuvette (1 cm path length) at room temperature. Electronic absorption spectra are baselined on a spectrum of deionized water and were corrected for scattering of light. Photoluminescence spectra are recorded by exciting with 310 nm light, slit widths for the excitation and emission monochromators were set to 5 nm, and the PMT detector voltage is set to 600 V. Photoluminescence spectra are corrected for changes in solution refractive index, inner filter effects and the wavelength-dependent correction factor of the fluorimeter."}, "[4]": {"experiment": "Acid-base titration of aqueous photoacid with absorption and steady-state photoluminescence detection (Henderson-Hasselbalch / Stern-Volmer fits, OH− as quencher)", "from_the_text": "FIGS. 2A through 2C illustrate acid-base titration of an aqueous solution of NS—NH2 photoacid with absorption and photoluminescence detection in accordance with an embodiment.\nwhere aOH− is the activity of OH^−(aq), K*b pseudo is an erroneous observed equilibrium constant for base dissociation and KSV,OH− is the Stern-Volmer quenching constant, which is strictly dimensionless but reported here in units of M^−1 to be consistent with its typical usage. Unlike the Henderson-Hasselbalch equation, the Stern-Volmer equation is also applicable to non-equilibrium processes.\nand KSV,OH−=k+q,OH−τo,PAH*, where τ is the excited-state lifetime (s) of NS—NH2* in the absence (τo,PAH*) or presence (τPAH*) of OH^− quencher and k+q,OH− is the bimolecular rate constant (M^−1 s^−1) for quenching of NS—NH2* by OH^− (forward direction of Reaction 1 with B=OH^−(aq)).\nas §1, with “fluorimeter. For experiments that use non-OH^− proton-accepting quenchers, equal amounts of the quencher are added to the dry volumetric flask intended to form the acidic and basic aqueous photoacid solutions, to prevent changes in total quencher concentration during the titration, and titrations are performed similarly to those in the absence of added proton-accepting quenchers. Although the total quencher concentration is kept constant throughout the titration, the activity of the deprotonated quencher species varied as a function of solution pH according to Equation 3. Ionic strength is matched at the most alkaline pH values; however, it is experimentally difficult to maintain the same ionic strength throughout the titration. Normalized photoluminescence intensities as a function of solution pH are obtained by dividing the corrected photoluminescence intensities at the wavelength of maximum photoluminescence to the maximum corrected photoluminescence intensity at the same wavelength.” for “fluorimeter.”"}, "[5]": {"experiment": "Marcus-Cohen bond-energy-bond-order (BEBO) analysis of quenching rate constants", "format": "physicochemical", "from_the_text": "Several embodiments provide accurate quantification of excited-state Brønsted-Lowry acidity and reorganization energy of weak photoacids using Marcus-Cohen bond-energy-bond-order (BEBO) theory. Data for this series of proton-accepting quenchers analyze the dependence of driving force on ESPT quenching rate constants and assess the validity of Marcus normal region behavior, as has been performed numerous times for excited-state electron transfer and proton-coupled electron transfer. Like excited-state electron-transfer quenching in polar solvents, ESPT is proposed to proceed through formation of an excited-state encounter complex between reactants prior to proton transfer, but unique to ESPT is dissociation of an excited-state encounter complex between products after proton transfer. […]\nwhere ΔGEC,R^o, ΔGPT^oand −ΔGEC,P^o are the standard Gibbs free energy differences for the individual reaction steps in the excited-state proton-transfer reaction sequence. Kinetic data (Equation 8) and thermodynamic data (Equation 11) are analyzed using Marcus-Cohen bond-energy-bond-order (BEBO) theory, which is based on transition-state theory and results in the following relationship between ΔGPT^‡ and ΔGPT^o, […]"}, "[6]": {"details": "proton acceptor, aqueous; cited from earlier work"}, "[7]": {"details": "cited from earlier work", "remark": "listed apart in the source"}, "[8]": {"experiment": "physchem"}, "[9]": {"details": "1 M total trifluoroethanol present"}, "[10]": {"details": "quenching of NS—NH2*, 1 M total quencher"}},
  "data": [
    {"smiles": "Oc1ccc2ccc3cccc4ccc1c2c34", "note": "[1-hydroxypyrene]", "values": [
      {"measurement": "ground state pKa", "setting": "[1]", "value": "about 9"}
    ]},
    {"smiles": "O=S(=O)(O)c1cc(S(=O)(=O)O)c2ccc3c(O)cc(O)c4ccc1c2c43", "note": "[DHPDS, 6,8-dihydroxy-1,3-pyrenedisulfonic acid]", "values": [
      {"measurement": "fluorescent signal during GDE operation", "setting": "[2]; cathodic current densities of 100 mA/cm^2 in magnitude, or larger", "value": "Some loss of fluorescent signal"},
      {"measurement": "photoluminescence intensity during GDE operation", "setting": "[2]; current density between 0 and −20 mA/cm^2", "value": "no significant decrease in photoluminescence intensity"},
      {"measurement": "pK*a", "setting": "[1]; strong photoacid", "value": "≈ 0"}
    ]},
    {"smiles": "Nc1cccc2c(S(=O)(=O)[O-])cccc12.[Na+]", "note": "[NS—NH2, 5-aminonaphthalene-1-sulfonic acid sodium salt]", "values": [
      {"measurement": "bimolecular rate constant, deprotonation of NS—NH2* by OH−(aq)", "setting": "[3]; 0.17 M total phosphate present", "value": "(163±8)×10^8 M^−1 s^−1"},
      {"measurement": "bimolecular rate constant, deprotonation of NS—NH2* by OH−(aq)", "setting": "[3]; 1 M total glycine present", "value": "(43±1)×10^8 M^−1 s^−1"},
      {"measurement": "bimolecular rate constant, deprotonation of NS—NH2* by OH−(aq)", "setting": "[3]; 1 M total proline present", "value": "(47±2)×10^8 M^−1 s^−1"},
      {"measurement": "bimolecular rate constant, deprotonation of NS—NH2* by OH−(aq)", "setting": "[3]; [9]", "value": "(60±30)×10^8 M^−1 s^−1"},
      {"measurement": "bimolecular rate constant, deprotonation of NS—NH2* by OH−(aq)", "setting": "[3]; 2 M total glycine present", "value": "(38±2)×10^8 M^−1 s^−1"},
      {"measurement": "KSV,OH−", "setting": "[3]; 0.17 M total phosphate present", "value": "37 ± 2", "unit": "M⁻¹"},
      {"measurement": "KSV,OH−", "setting": "[3]; 1 M total glycine present", "value": "20 ± 1", "unit": "M⁻¹"},
      {"measurement": "KSV,OH−", "setting": "[3]; 1 M total proline present", "value": "22 ± 1", "unit": "M⁻¹"},
      {"measurement": "KSV,OH−", "setting": "[3]; [9]", "value": "30 ± 10", "unit": "M⁻¹"},
      {"measurement": "KSV,OH−", "setting": "[3]; 2 M total glycine present", "value": "8.6 ± 0.4", "unit": "M⁻¹"},
      {"measurement": "pKa", "setting": "[4]; aqueous solution, ground-state pKa, aromatic amine, aqueous", "value": "> 17"},
      {"measurement": "KSV,τ,OH− (linearized Stern-Volmer)", "setting": "[4]; lifetime data, linearized Stern-Volmer fit, OH−(aq) quencher", "value": "about 55±1 M^−1"},
      {"measurement": "KSV,τ,OH−", "setting": "[4]; lifetime data, non-linear Stern-Volmer fit, OH−(aq) quencher", "value": "about 54±6 M^−1"},
      {"measurement": "bimolecular rate constant k+q,τ,OH−", "setting": "[4]; lifetime data, forward direction of Reaction 1 with B=OH−(aq)", "value": "about (12±1)×10^9 M^−1 s^−1"},
      {"measurement": "KSV,ss,OH−", "setting": "[4]; steady-state photoluminescence, non-linear Stern-Volmer fit, OH−(aq) quencher", "value": "about 47±1 M^−1"},
      {"measurement": "KSV,ss,OH− (linearized Stern-Volmer)", "setting": "[4]; steady-state photoluminescence, traditional linearized Stern-Volmer fit, OH−(aq) quencher", "value": "about 46±1 M^−1"},
      {"measurement": "ΔGo,PT‡", "setting": "[5]; Gibbs free energy of activation of proton-transfer step at ΔGPT°=0", "value": "0.080±0.005", "unit": "eV"},
      {"measurement": "“true” pK*a", "setting": "[5]; Marcus-Cohen BEBO analysis", "value": "11.7±0.1"}
    ]},
    {"smiles": "O=C(O)[C@@H]1CCCN1", "note": "[Proline]", "values": [
      {"measurement": "bimolecular rate constant, deprotonation of NS—NH2* by the quencher", "setting": "[3]; 1 M total quencher", "value": "(1.70±0.05)×10^8 M^−1 s^−1"},
      {"measurement": "k+q,corr", "setting": "[3]; corrected rate constant, ESPT from NS—NH2* to the proton acceptor", "value": "7.11 ± 0.21 10^8 M^−1 s^−1"},
      {"measurement": "k+q", "setting": "[3]; direct excited-state proton transfer from NS—NH2* to the proton acceptor", "value": "1.70 ± 0.05 10^8 M^−1 s^−1"},
      {"measurement": "pKa", "setting": "[3]; value after the slash", "value": 10.8},
      {"measurement": "pKa", "setting": "[3]; value before the slash", "value": 10.7},
      {"measurement": "KSV,quencher (Equation 7)", "setting": "[3]; [10]", "value": "0.80 ± 0.02", "unit": "M⁻¹"},
      {"measurement": "KSV,quencher (traditional linearized Stern-Volmer)", "setting": "[3]; [10]", "value": "0.79 ± 0.01", "unit": "M⁻¹"},
      {"measurement": "Diffusion Coefficient", "setting": "[6]", "value": "8.79 10^−6 cm^2/s"},
      {"measurement": "pKa, literature value", "setting": "[7]", "value": 10.5},
      {"measurement": "pKa", "setting": "[8]", "value": 10.8}
    ]}
  ]
}
